Experimental data: US8551951B2, “Pharmaceutical preparations and methods for inhibiting tumors” (Aenorasis SA Pharmaceuticals and Medical Devices, priority 2000, dated 2013)
Peptide text beside a SMILES is read from it.

Columns and labels:
[1] = test system: PC-3 cells; assay: DNA fragmentation assay (DNA ladder, apoptosis); assay type: cell-based, human; conditions: for DNA laddering effect: various concentrations
Summary of the method: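 PC-3 cells were exposed for 72 h to the polypeptides at various concentrations, PCK3145 at 500 μg/ml in supplemented medium; untreated cells and doxorubicin served as controls. Isolated DNA was run on 1.2% agarose with ethidium bromide, and a DNA ladder was scored as apoptotic fragmentation.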

[2] = test system: human PC-3 tumor; assay: Studies PC3-6 and PC3-12, human PC-3 prostate cancer nude mouse xenograft model; assay type: in vivo, nude mice
Text: Studies PC3-6 and PC3-12 (FIGS. 26-27) are consecutive group experiments designed to characterize the in vivo activity of PCK3145 in the human PC-3 prostate cancer nude mouse xenograft model and to explore relationships between dose, route and schedule of administration and the efficacy parameters of tumor growth (volume).
PC-3 cells harvested in mid-log phase were inoculated at 5×10^6 cells per mice via the subcutaneous route in the mice's back area. Tumors grown from this inoculum were excised at approximately day 32 to 35 post-tumor implantation (p.t.i) when tumor volume reached 200-300 mm^3 (i.e., cu mm). The necrotic tissue was removed and the viable tumor mass cut into small pieces (approximately 1 to 3 mm^3) were implanted SC in the flank region at two opposite sites of the mouse. Treatment with various concentrations of PCK3145 was initiated at day 3 post-tumor implantation (p.t.i) and was continued daily for 21 days. Subcutaneous injections were done below tumor growth sites. Intra-peritoneal injections were performed in the abdominal region. Intra-venous injections were performed via the lateral tail vein. The experiment was terminated 24 hours after the last treatment. Tumor measurements were taken at Days 11, 14, 16, 18, 20, 22 and 24 post-tumor implantation (p.t.i). Tumor volumes were calculated according to formula (a×b^2×0.5), where a—is the length of the long diameter, and b—is the width of the perpendicular small diameter.
Study No: PC3-6 illustrates the efficacy of PCK3145, injected subcutaneously, in tumor growth retardation in Nude mice, which have received PC-3 implants. Mice were separated in different group each receiving various amounts of PCK3145 (SEQ ID NO: 5) or control reagents. The different groups used in these experiments are illustrated in table 6 below. Each group contained 10 mice. Doxorubicin was administered as single bolus intra-venous injection on days 3 and 11 post-tumor implantation (p.t.i).
Study No: PC3-12 illustrates the efficacy of PCK3145 in tumor growth retardation in Nude mice, which have received PC-3 implants. Mice were separated in different group each receiving various amounts of PCK3145 (SEQ ID NO: 5) or control reagents. PCK3145 was injected either through intra-venous or intra-peritoneal route. The different groups used in these experiments are illustrated in table 7 below. Each group contained 9 mice.

[3] = test system: human prostate cancer cells PC-3; assay: MTS assay, growth inhibitory effect on PC-3 cells; assay type: cell-based; conditions: for growth inhibition of PC-3 cells (FIG. 10): 72 hours
Text: Cell proliferation was monitored on PC-3 cells using the MTS/PMS (phenazine methosulfate) kit (Promega), which primarily measures mitochondrial activity of live cells. The basic principle of this method involves the fact that the mitochondrial enzymes of the live cells metabolize the MTS/PMS dyes forming a brown colored precipitate which can be measured as optical density (OD) by absorption at 490 nm in a spectrophotometer. Therefore, the OD values are proportional to the number of living cells. In addition, monitoring of cell morphology was also performed. Cell morphology would be indicative of their health status. For example, viable cells would appear adherent and spread out whereas dead cells would be in suspension in the media and would appear granular and round.
PC-3 cells (ATCC, Lot AT06) used in these experiments were at a passage number lower or equal to 70 (n≧70). Cells were seeded in Costar 96 well cell culture flat bottom plates in RPMI supplemented media containing 50 μg/ml of bovine serum albumin (BSA) and 0.1 μM FeSO4. Peptide was diluted in the same media. Cells were continuously exposed to the polypeptides of the present invention for 72 hours without changing media. Native PSP94 or rHuPSP94 concentrated two fold were directly added to wells and diluted to 1× in order to minimize cell manipulation and avoid detachment.
Native PSP94, rHuPSP94, polypeptide 22-36 and PB111 polypeptide (scrambled polypeptide) were also included in this experiment as controls. Cell proliferation assay was performed on either PC-3 cells or normal fibroblasts (used here as control) using the MTS/PMS kit (Promega). Four thousand cells (FIGS. 9 and 10) or three thousand (FIG. 11) cells were seeded in Costar 96 well cell culture flat bottom plates in RPMI supplemented media containing 50 μg/ml of bovine serum albumin (BSA) and 0.1 μM FeSO4. In addition, monitoring of cell morphology was also performed.
This assay measures the mitochondrial activity of the live cells. The basic principle of this method involves the fact that the mitochondrial enzymes of the live cells metabolize the MTS/PMS dyes forming a brown colored precipitate which can be measured as optical density (OD) by absorption at 490 nm in a spectrophotometer. Therefore, the OD values are proportional to the number of living cells.
In addition, a visual observation of the cells was also done to check the cell morphology, which could also be indicative of cell growth. The following conditions for MTS assay were used: PC-3 (ATCC, Lot AT06), passage number n≧70, cell line adapted to grow in serum-free OPTI-MEM and in RPMI supplemented with BSA (50 μg/ml) and Ferrous Sulfate (0.1 μM), continuous exposure for up to 72 hours without changing media (i.e., adding PCK3145 at 2× concentration directly to wells and diluting it 1:2 to 1× to minimize cell manipulation and avoid detachment).

Compound | DNA laddering effect ([1]; 72 hours) | anti-tumor effect in the PC-3 nude mouse xenograft model ([2]; mouse, in vivo) | growth inhibition of PC-3 cells (FIG. 10) [3] | DNA laddering effect (FIG. 7 lane 5) ([1]; 22.5 μM) | DNA laddering effect (FIG. 7 lane 6) ([1]; 45 μM) | DNA fragmentation (FIG. 25) ([1]; 500 μg/ml, 72 hours, supplemented media) | anti-tumor effect on subcutaneous injection at a site distant from tumor (scruff of the neck) ([2]; 10 μg/kg/day and 100 μg/kg/day) | tumor growth (volume), study PC3-6 ([2]; 10 μg/kg/day s.c. below tumor sites, daily for 21 days, p=0.001 to 0.002 vs PBS) | tumor growth (volume), study PC3-12 ([2]; 100 μg/kg/day intra-venous, days 13, 17 and 20) | tumor growth (volume), study PC3-12 ([2]; 10, 500 and 1000 μg/kg/day intra-venous) | tumor growth (volume), study PC3-12 ([2]; 500 and 1000 μg/kg/day intra-venous) | inhibitory effect on the growth of PC-3 cells ([3]; 0 to 400 μg/ml, tests repeated 5 times)
polypeptide 7-21: PSP94 derived synthetic polypeptide from the amino terminus end, SEQ ID NO: 4 (NEGVPGDSTRKCMDL; Polypeptide 7-21) | induced a DNA laddering effect characteristic of apoptosis | also observed in the PC-3 nude mouse xenograft model | significant growth inhibition | – | – | – | – | – | – | – | – | –
C[C@@H](O)[C@H](NC(=O)[C@H](CCC(=O)O)NC(=O)[C@H](Cc1ccc(O)cc1)NC(=O)[C@H](CS)NC(=O)[C@@H](NC(=O)[C@H](CS)NC(=O)[C@@H](NC(=O)[C@H](CCC(=O)O)NC(=O)[C@H](CS)NC(=O)[C@H](CC(N)=O)NC(=O)[C@H](CC(=O)O)NC(=O)[C@@H](NC(=O)[C@H](CCC(N)=O)NC(=O)[C@H](Cc1c[nH]c2ccccc12)NC(=O)[C@@H](N)CCC(=O)O)[C@@H](C)O)[C@@H](C)O)[C@@H](C)O)C(=O)O [PCK3145, EWQTDNCETCTCYET] (H-EWQTDNCETCTCYET-OH; N-terminus and C-terminus assumed) | induced a DNA laddering effect characteristic of apoptosis | – | significant growth inhibition | DNA laddering effect | DNA laddering effect | resulted in DNA fragmentation | might not be efficacious enough | significant PC-3 tumor growth retardation | significant tumor growth retardation | No significant anti-tumor effect | trend towards significance | dose dependent inhibitory effect
